# Measured values taken from patent US10485235B2, “Aryloxypyrimidinyl ethers as herbicides” (FMC Corporation, priority 2015, dated 2019).
# Legend:
# Assay type in all cases: in vivo
# [1] = system: pigweed (Amaranthus retroflexus); assay: Test A preemergence, pigweed; conditions: Preemergence, 0 to 100 scale (0 no effect, 100 complete control)
# Description: (§1) Seeds of plant species selected from barnyardgrass (Echinochloa crus-galli), kochia (Kochia scoparia), ragweed (common ragweed, Ambrosia elatior), ryegrass, Italian (Italian ryegrass, Lolium multiflorum), foxtail, giant (giant foxtail, Setaria faberii), and pigweed (Amaranthus retroflexus), were planted into a blend of loam soil and sand and treated preemergence with a directed soil spray using test chemicals formulated in a non-phytotoxic solvent mixture which included a surfactant.
# (§2) At the same time, plants selected from these weed species and also wheat (Triticum aestivum), corn (Zea mays), blackgrass (Alopecurus myosuroides), and galium (catchweed bedstraw, Galium aparine), were planted in pots containing the same blend of loam soil and sand and treated with postemergence applications of test chemicals formulated in the same manner. Plants ranged in height from 2 to 10 cm and were in the one- to two-leaf stage for the postemergence treatment. Treated plants and untreated controls were maintained in a greenhouse for approximately 10 days, after which time all treated plants were compared to untreated controls and visually evaluated for injury. Plant response ratings, summarized in Table A, are based on a 0 to 100 scale where 0 is no effect and 100 is complete control. A dash (—) response means no test result.
# kochia (Kochia scoparia) [2] = assay: Test A postemergence, kochia; conditions: postemergence, 0 to 100 scale, 0 is no effect, 100 is complete control, approximately 10 days
# Description: as §1, §2
# [3] = system: barnyardgrass (Echinochloa crus-galli); assay: Test A postemergence, barnyardgrass; conditions: postemergence, 0 to 100 scale, 0 is no effect, 100 is complete control, approximately 10 days
# Description: as §1, §2
# [4] = system: ragweed (common ragweed, Ambrosia elatior); assay: Test A preemergence, ragweed; conditions: Preemergence, 0 to 100 scale (0 no effect, 100 complete control)
# Description: as §1, §2
# corn (Zea mays) = assay: Test A postemergence, corn; conditions: postemergence, 0 to 100 scale, 0 is no effect, 100 is complete control, approximately 10 days
# Description: as §1, §2
# [5] = system: wheat (Triticum aestivum); assay: Test A postemergence, wheat; conditions: postemergence, 0 to 100 scale, 0 is no effect, 100 is complete control, approximately 10 days
# Description: as §1, §2
# [6] = system: ragweed (common ragweed, Ambrosia elatior); assay: Test A postemergence, ragweed; conditions: postemergence, 0 to 100 scale, 0 is no effect, 100 is complete control, approximately 10 days
# Description: as §1, §2
# [7] = system: galium (catchweed bedstraw, Galium aparine); assay: Test A postemergence, galium; conditions: postemergence, 0 to 100 scale, 0 is no effect, 100 is complete control, approximately 10 days
# Description: as §1, §2
# [8] = system: pigweed (Amaranthus retroflexus); assay: Test A postemergence, pigweed; conditions: postemergence, 0 to 100 scale, 0 is no effect, 100 is complete control, approximately 10 days
# Description: as §1, §2
# [9] = system: blackgrass (Alopecurus myosuroides); assay: Test A postemergence, blackgrass; conditions: postemergence, 0 to 100 scale, 0 is no effect, 100 is complete control, approximately 10 days
# Description: as §1, §2
# [10] = system: foxtail, giant (giant foxtail, Setaria faberii); assay: Test A postemergence, giant foxtail; conditions: postemergence, 0 to 100 scale, 0 is no effect, 100 is complete control, approximately 10 days
# Description: as §1, §2
# [11] = system: ryegrass, Italian (Italian ryegrass, Lolium multiflorum); assay: Test A postemergence, Italian ryegrass; conditions: postemergence, 0 to 100 scale, 0 is no effect, 100 is complete control, approximately 10 days
# Description: as §1, §2
# [12] = system: foxtail, giant (giant foxtail, Setaria faberii); assay: Test A preemergence, giant foxtail; conditions: Preemergence, 0 to 100 scale (0 no effect, 100 complete control)
# Description: as §1, §2
# [13] = system: barnyardgrass (Echinochloa crus-galli); assay: Test A preemergence, barnyardgrass; conditions: Preemergence, 0 to 100 scale (0 no effect, 100 complete control)
# Description: as §1, §2
# kochia (Kochia scoparia) [14] = assay: Test A preemergence, kochia; conditions: Preemergence, 0 to 100 scale (0 no effect, 100 complete control)
# Description: as §1, §2
# [15] = system: ryegrass, Italian (Italian ryegrass, Lolium multiflorum); assay: Test A preemergence, Italian ryegrass; conditions: Preemergence, 0 to 100 scale (0 no effect, 100 complete control)
# Description: as §1, §2
compound,measurement,setting,value
N#Cc1cccc(Oc2ncc(F)cn2)c1OC/C=C/Cl [Compound 36],"Plant response rating, Pigweed",[1]; 31 g ai/ha,100
same,"Plant response rating, Pigweed",[1]; 125 g ai/ha,100
same,"Plant response rating, Kochia",kochia (Kochia scoparia) [2]; 31 g ai/ha,80
same,"Plant response rating, Kochia",kochia (Kochia scoparia) [2]; 125 g ai/ha,90
same,"Plant response rating, Barnyardgrass",[3]; 31 g ai/ha,0
same,"Plant response rating, Barnyardgrass",[3]; 125 g ai/ha,70
same,"Plant response rating, Ragweed",[4]; 31 g ai/ha,0
same,"Plant response rating, Ragweed",[4]; 125 g ai/ha,0
same,"Plant response rating, Corn",corn (Zea mays); 31 g ai/ha,0
same,"Plant response rating, Corn",corn (Zea mays); 125 g ai/ha,20
same,"Plant response rating, Wheat",[5]; 31 g ai/ha,0
same,"Plant response rating, Wheat",[5]; 125 g ai/ha,0
same,"Plant response rating, Ragweed",[6]; 31 g ai/ha,20
same,"Plant response rating, Ragweed",[6]; 125 g ai/ha,40
same,"Plant response rating, Galium",[7]; 31 g ai/ha,40
same,"Plant response rating, Galium",[7]; 125 g ai/ha,50
same,"Plant response rating, Pigweed",[8]; 31 g ai/ha,50
same,"Plant response rating, Pigweed",[8]; 125 g ai/ha,50
same,"Plant response rating, Blackgrass",[9]; 31 g ai/ha,10
same,"Plant response rating, Blackgrass",[9]; 125 g ai/ha,50
same,"Plant response rating, Foxtail, Giant",[10]; 31 g ai/ha,0
same,"Plant response rating, Foxtail, Giant",[10]; 125 g ai/ha,50
same,"Plant response rating, Ryegrass, Italian",[11]; 31 g ai/ha,0
same,"Plant response rating, Ryegrass, Italian",[11]; 125 g ai/ha,20
same,"Plant response rating, Foxtail, Giant",[12]; 31 g ai/ha,30
same,"Plant response rating, Foxtail, Giant",[12]; 125 g ai/ha,90
same,"Plant response rating, Barnyardgrass",[13]; 31 g ai/ha,30
same,"Plant response rating, Barnyardgrass",[13]; 125 g ai/ha,80
same,"Plant response rating, Kochia",kochia (Kochia scoparia) [14]; 31 g ai/ha,10
same,"Plant response rating, Kochia",kochia (Kochia scoparia) [14]; 125 g ai/ha,100
same,"Plant response rating, Ryegrass, Italian",[15]; 31 g ai/ha,0
same,"Plant response rating, Ryegrass, Italian",[15]; 125 g ai/ha,0
